Columns and labels:
Format in all cases: in vivo
[1] = Pharmacokinetic study in rats (IV and PO, plasma); conditions: Sprague-Dawley, rat, SD rats
Procedure: The pharmacokinetics of the compounds prepared according to Examples 1 to 46 were studied using experimental animal models. Specifically, 7- to 8-week-old SD rats (Koatech, Hana Sangsa Co., Ltd.) weighing approximately 250 to 300 g were purchased and maintained in a small animal simple breeding room set at a temperature of 22 ± 2°C, relative humidity of 50 ± 5%, lighting time of 12 hours (lights on at 8 AM and lights off at 8 PM), and illumination of 150 to 300 lux. Throughout the entire test period, feed was provided ad libitum, RO water was provided ad libitum, and fasting was performed for 16 hours before oral administration of the drug. After preparing the drugs under the conditions shown in Table 7 below, the drugs were administered by intravenous injection (IV) or oral administration (PO). Collected blood at 500 µL was collected in tubes containing heparin sodium and centrifuged at 8000 rpm at 2 to 8°C for 6 minutes to obtain plasma from the blood. 20 µL of the obtained plasma was taken, added to 180 µL of acetonitrile containing an internal standard, vortexed, and centrifuged at 15,000 rpm at 4°C for 5 minutes, and the obtained supernatant was analyzed by LC-MS/MS. The HPLC and MS conditions used for analysis are shown in Tables 8 and 9 below, respectively.
Specific PK parameters were calculated using Phoenix WinNonlin 6.4 version (Pharsight, USA) program and a non-compartmental analysis model, and the results are summarized in Table 11 below.

[2] = system: TauP301L-BiFC Tg mice; assay: Novel Objective Recognition test in tau transgenic mice; conditions: oral 10 mg/kg, 5 times per week, 19 weeks, Vehicle = 0.48
Procedure: (§1) Compounds 6, 16, and 20 were orally administered to 8.2-month-old tau transgenic animal model (TauP301L-BiFC tg mouse) 5 times per week at a concentration of 10 mg/kg for a total of 19 weeks (n=10/group). WT mice of similar age to the vehicle-treated group of TauP301L-BiFC mice were used as a control group. Three types of behavioral experiments (Novel Objective Recognition test, Y-maze test, Balance beam test) were performed to confirm the improvement effects on cognitive function and motor function by drug administration, and these experiments and their results were as follows. • (1) Novel Objective Recognition test: To evaluate the object recognition memory ability of mice, two identical objects (Old-Old) were explored for 10 minutes in a 40 cm × 40 cm box. The next day, one object was replaced with a new object (Old-New) and exploration was performed again for 10 minutes, and then the time showing exploratory behavior toward the existing object and the new object was measured. Mice with normal object recognition ability (Recognition index) spent more time exploring the newly changed object, whereas mice with low object recognition ability could not distinguish the new object. The object recognition ability (Recognition index) values were as follows: (RI, Vehicle= 0.48, n.s., #20= 0.59, p<0.05, #6= 0.66, p<0.0001, #16= 0.58, p<0.05). In TauP301L-BiFC mice, the object recognition function improvement effect by drugs #20, #6, and #16 compared to the vehicle group was confirmed. • (2) Y-maze test: A Y-maze test was performed to evaluate the spatial working memory ability of mice. Whether the mice entered the three arms of the Y-maze by spontaneous alternation behavior for a certain period of time was measured through video recording. An increase in the spontaneous alternation ratio was considered as improved working memory ability. […] The time taken to cross a rod with a height of 50 cm and length of 80 cm and the number of times the feet went outside the rod during crossing were measured. […]

[3] = system: TauP301L-BiFC Tg mice; assay: Y-maze test in tau transgenic mice; conditions: oral 10 mg/kg, 5 times per week, 19 weeks, vehicle = 60.7%
Procedure: as §1

[4] = system: TauP301L-BiFC Tg mice; assay: Balance beam test in tau transgenic mice; conditions: oral 10 mg/kg, 5 times per week, 19 weeks, vehicle = 1.5
Procedure: as §1

[5] = target: T1, tau (Homo sapiens, UniProt P10636, P618L); assay: Total tau immunoblot of RIPA-insoluble brain lysates; conditions: TauP301L-BiFC mice, compared to vehicle, numbers not readable (formula image)
T1 construct: BiFC fluorescent-protein fragments (two complementary halves); from tissue; host or cells: brain of TauP301L-BiFC transgenic mice
T1 sequence (P10636 1-441 isoform P10636-8 P301L): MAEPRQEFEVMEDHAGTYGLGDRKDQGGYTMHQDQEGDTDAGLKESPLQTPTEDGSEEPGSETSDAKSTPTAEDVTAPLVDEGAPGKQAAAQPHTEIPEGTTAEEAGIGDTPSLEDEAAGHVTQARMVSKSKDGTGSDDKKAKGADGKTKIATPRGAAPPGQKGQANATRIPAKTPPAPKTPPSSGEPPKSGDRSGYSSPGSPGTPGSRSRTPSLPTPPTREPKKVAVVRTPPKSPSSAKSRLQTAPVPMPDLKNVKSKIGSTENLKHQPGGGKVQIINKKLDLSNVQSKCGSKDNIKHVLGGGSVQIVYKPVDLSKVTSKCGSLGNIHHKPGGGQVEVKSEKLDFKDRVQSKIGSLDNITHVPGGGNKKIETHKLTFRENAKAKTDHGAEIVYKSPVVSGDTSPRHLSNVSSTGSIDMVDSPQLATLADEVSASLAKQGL
Procedure: [2] To verify the tau pathology inhibitory efficacy of the drug confirmed through brain tissue imaging via brain lysate immunoblot, brain lysates were separated and purified, and immunoblot using tau antibody was performed in soluble and insoluble fractions. The brain was weighed, and RIPA lysis buffer containing the corresponding dose of protease and phosphatase inhibitors was added to the brain tissue. The tissue was then disrupted using a homogenizer and incubated at 4°C for 2 hours, and then centrifuged at 13,200 rpm at 4°C for 20 minutes. After centrifugation, the supernatant was collected as a RIPA-soluble fraction and stored at -80°C. To prepare the RIPA-insoluble fraction, the remaining pellet was washed once with RIPA lysis buffer containing 1 M sucrose, and then 2% SDS solution (1 mL per 1 g of tissue) was added and incubated at room temperature for 1 hour. Thereafter, the mixture was centrifuged at 13,200 rpm for 1 minute at room temperature, and the supernatant was collected as a RIPA-insoluble fraction and stored at -80°C.
For tau immunoblot analysis, 20 µg of brain tissue RIPA-soluble sample was separated on a 10% SDS-PAGE gel and transferred to a PVDF membrane, and RIPA-insoluble samples were diluted 10-fold in 2% SDS solution and 20 µL of each sample was loaded on an SDS-PAGE gel. The total tau and phosphorylated tau levels were detected by Tau5, which is an anti-tau antibody, and pS199 and pS396, which are anti-phosphorylated tau antibodies. ImageJ software (NIH) was used to quantify band intensity.
The results of total tau immunoblot using RIPA-insoluble brain lysates were as follows: [formula]

Row | Compound | object recognition ability (Recognition index, RI) [2] | spontaneous alternation ratio (Alteration ratio (%)) [3] [%] | Average number of times feet went outside the rod (n) [4] | total tau immunoblot, insoluble tau aggregate formation [5] | bioavailability ([1]; IV 2 mg/kg, PO 10 mg/kg) [%] | AUC ([1]; IV, 2 mg/kg) [ng·h/mL] | Cmax ([1]; IV, 2 mg/kg) [ng/mL] | clearance ([1]; IV, 2 mg/kg) [mL/min/kg] | half-life ([1]; IV, 2 mg/kg) [min] | AUC ([1]; PO, 10 mg/kg) [ng·h/mL] | Cmax ([1]; PO, 10 mg/kg) [ng/mL] | Tmax ([1]; PO, 10 mg/kg) [min] | half-life ([1]; PO, 10 mg/kg) [min] | further results
1 | N#CC(C#N)=NNc1ccc2nc(N3C4CCC3COC4)oc2c1 [Compound 20, (2-(3-oxa-8-azabicyclo[3.2.1]octan-8-yl)benzo[d]oxazol-6-yl)carbonohydrazonoyl dicyanide] | 0.59 | 70.8 | 0.7 | inhibition of insoluble tau aggregate formation | – | – | – | – | – | – | – | – | – | bioavailability ([1]; IV 1 mg/kg, PO 15 mg/kg): 114%; AUC ([1]; IV, 1 mg/kg): 130 ng·h/mL; clearance ([1]; IV, 1 mg/kg): 132 mL/min/kg; half-life ([1]; IV, 1 mg/kg): 12 min; AUC ([1]; PO, 15 mg/kg): 2210 ng·h/mL; Cmax ([1]; PO, 15 mg/kg): 2050 ng/mL; Tmax ([1]; PO, 15 mg/kg): 24 min; half-life ([1]; PO, 15 mg/kg): 96 min
2 | Cn1c(N2CCOCC2)nc2cc(NN=C(C#N)C#N)ccc21 [Compound 6, (1-methyl-2-morpholino-1H-benzo[d]imidazol-5-yl)carbonohydrazonoyl dicyanide] | 0.66 | 71.1 | 1.1 | inhibition of insoluble tau aggregate formation | 42 | 1700 | 9870 | 19.5 | 34.8 | 3570 | 4880 | 15 | 53.4 | –
3 | CC1COCCN1c1nc2ccc(NN=C(C#N)C#N)cc2o1 (centres unmarked) [Compound 16, (2-(3-methylmorpholino)benzo[d]oxazol-6-yl)carbonohydrazonoyl dicyanide] | 0.58 | 76.4 | 0.8 | inhibition of insoluble tau aggregate formation | 114 | 4090 | 4090 | 8.33 | 30.6 | 23300 | 11100 | 40.2 | 112 | –
